# According to patent US12274687B2, “Methods for treating ascites” (Martin Pharmaceuticals, Inc., priority 2021, dated 2025):
# Entries after “also recorded” stand apart in the source; their conditions may differ.
# Legend:
# [1] = tested on: cirrhotic subjects with RA; test: Open-label, single-arm clinical study of docarpamine on ascites formation (frequency of LVP, volume of ascitic fluid drained); format: in vivo, human
# Experimental: An open-label, single-arm study in which each subject serves as his/her own control is conducted. The study assesses the effect of DCP treatment on ascites formation in cirrhotic subjects with RA, by examining the frequency of LVP and the volume of ascitic fluid drained. All subjects participate in a 90-day open-label treatment period. […] Ascites history (relevant medications, LVP dates, and volume of drained fluid) for the 90 days prior to treatment and the 90 days after treatment are collected and used for comparison with on-treatment frequency and volume. The study population consists of cirrhotic patients between 18 and 70 years of age, inclusive, with refractory ascites, subject to the following inclusion and exclusion criteria. • Patients 18 years to 70 years of age. • Documented cirrhosis of the liver. • Refractory ascites, defined as ascites not manageable with diuretics and diet restriction, managed with periodic large volume therapeutic paracentesis. • Patients must have therapeutic […] 3 days prior to enrollment and a documented minimum of 3 additional therapeutic […] 90 days prior to enrollment, with at least 1 every 30 days. • Outpatient, with expected survival of at least 6 months. • Willing and able to complete an informed consent form.
# RA patients = conditions: small cohort of RA patients; cited from earlier work
# [2] = administered orally; high rates of metabolism in gut / small intestine and liver; cited from earlier work
# patients with RA = conditions: cited from earlier work
# [3] = high dose 4500 mg per day (1500 mg 3 times per day), 90 days treatment, on average, vs 90 days prior to treatment
structure (smiles),measurement,setting,value
CCOC(=O)Oc1ccc(CCNC(=O)[C@H](CCSC)NC(C)=O)cc1OC(=O)OCC [docarpamine],"effects on LVP, ascites volume and renal markers at low dose","[1]; 750 mg 3 times per day (2250 mg per day), 90 days: effects not observed",only in the high dose
same,time during which patients do not require LVP,"[1]; 4500 mg per day group, some patients / others",more than one month; also recorded: more than two months
same,other markers of improved renal function,"[1]; 4500 mg per day, 90 days",respond positively
same,sodium excretion,"[1]; 4500 mg per day, 90 days",Increased
same,Renin and/or aldosterone levels,"[1]; 4500 mg per day, many patients, in some cases to normal",reduced
same,urinary output on treatment,"[1]; 4500 mg per day, most patients, from 500-1000 ml before, printed '1500-2000 ml or more'",1500 to 2000 mL
same,frequency of LVP over 90 days,[1]; [3],reduced by more than half
same,volume of ascites removed over 90 days,[1]; [3],reduced by more than half
same,frequency and volume of LVP once a patient stops treatment,[1]; off-treatment follow-up after 90 days at 4500 mg per day,greater decreases
same,persistence of the decrease in LVP after stopping treatment,"[1]; off-treatment follow-up, before beginning to increase again",one or more months
same,efficacy in refractory ascites,RA patients,effective
NCCc1ccc(O)c(O)c1 [dopamine],oral bioavailability,[2],not orally bioavailable
same,"changes of blood urea nitrogen, creatinine, creatinine clearance, blood pressure, pulse rate, serum sodium, serum aldosterone and GFR",patients with RA,no difference
same,effective renal plasma flow,patients with RA,Positive effects
